# T1: cPK1 (Arabidopsis thaliana, UniProt Q9FNN1)
# T1 construct: gene MAH20.13; full-length cDNA in pET16b, N-terminal His tag (6x in Results, 5x in Methods), E. coli BLR21, Ni-NTA; primer begins MSNIDIEG
# T1 sequence (Q9FNN1 1-510): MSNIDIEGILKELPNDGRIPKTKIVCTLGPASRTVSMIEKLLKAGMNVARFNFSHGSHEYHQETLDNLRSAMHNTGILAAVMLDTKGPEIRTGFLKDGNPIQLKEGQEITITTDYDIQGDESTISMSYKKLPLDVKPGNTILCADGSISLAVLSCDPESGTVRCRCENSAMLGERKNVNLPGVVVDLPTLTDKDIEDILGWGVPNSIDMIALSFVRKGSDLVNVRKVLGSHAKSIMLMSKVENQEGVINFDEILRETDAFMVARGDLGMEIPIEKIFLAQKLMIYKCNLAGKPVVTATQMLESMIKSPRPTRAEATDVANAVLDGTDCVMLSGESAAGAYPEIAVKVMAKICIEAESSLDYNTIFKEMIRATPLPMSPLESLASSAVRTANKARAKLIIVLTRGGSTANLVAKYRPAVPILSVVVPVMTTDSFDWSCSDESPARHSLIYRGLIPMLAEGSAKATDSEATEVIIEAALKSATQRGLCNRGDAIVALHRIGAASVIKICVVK
# T2: cPK4 (Arabidopsis thaliana, UniProt Q9SJQ0)
# T2 construct: gene At2g36580; full-length cDNA in pET16b, N-terminal His tag (6x in Results, 5x in Methods), E. coli BLR21, Ni-NTA; primer begins MHSSHL
# T2 sequence (Q9SJQ0 1-527): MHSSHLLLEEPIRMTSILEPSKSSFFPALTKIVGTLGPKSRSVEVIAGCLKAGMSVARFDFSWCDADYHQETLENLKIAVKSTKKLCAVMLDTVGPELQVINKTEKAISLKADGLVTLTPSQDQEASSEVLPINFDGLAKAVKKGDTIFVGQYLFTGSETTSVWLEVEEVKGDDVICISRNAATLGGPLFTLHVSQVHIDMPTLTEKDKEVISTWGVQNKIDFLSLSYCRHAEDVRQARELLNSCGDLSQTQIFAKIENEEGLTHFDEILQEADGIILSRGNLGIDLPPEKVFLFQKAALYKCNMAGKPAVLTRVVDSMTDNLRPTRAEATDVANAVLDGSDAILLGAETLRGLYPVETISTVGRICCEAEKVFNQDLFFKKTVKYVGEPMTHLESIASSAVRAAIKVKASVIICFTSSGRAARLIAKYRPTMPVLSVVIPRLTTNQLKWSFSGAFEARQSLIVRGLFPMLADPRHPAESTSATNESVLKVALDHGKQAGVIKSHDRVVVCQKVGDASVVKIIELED
# T3: cPK2 (Arabidopsis thaliana, UniProt Q9FM97)
# T3 construct: gene MCD7.8; full-length cDNA in pET16b, N-terminal His tag (6x in Results, 5x in Methods), E. coli BLR21, Ni-NTA; primer begins MAMIEQ
# T3 sequence (Q9FM97 1-498): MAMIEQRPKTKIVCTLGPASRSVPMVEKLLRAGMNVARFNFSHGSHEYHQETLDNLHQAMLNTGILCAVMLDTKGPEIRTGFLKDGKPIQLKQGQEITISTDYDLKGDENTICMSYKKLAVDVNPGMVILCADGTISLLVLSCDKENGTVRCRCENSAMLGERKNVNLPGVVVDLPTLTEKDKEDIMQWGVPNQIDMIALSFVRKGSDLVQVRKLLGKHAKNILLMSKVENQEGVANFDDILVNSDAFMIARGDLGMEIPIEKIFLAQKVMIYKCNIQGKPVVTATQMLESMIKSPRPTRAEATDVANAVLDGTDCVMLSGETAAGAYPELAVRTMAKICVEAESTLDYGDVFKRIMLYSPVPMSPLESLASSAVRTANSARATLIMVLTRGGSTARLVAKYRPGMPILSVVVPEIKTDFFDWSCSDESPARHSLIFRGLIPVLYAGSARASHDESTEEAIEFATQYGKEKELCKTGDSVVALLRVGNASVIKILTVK
# T4: cPK5 (Arabidopsis thaliana, UniProt F4J867)
# T4 construct: gene At3g52990; full-length cDNA in pET16b, N-terminal His tag (6x in Results, 5x in Methods), E. coli BLR21, Ni-NTA; primer begins MHSSHL
# T4 sequence (F4J867 1-527): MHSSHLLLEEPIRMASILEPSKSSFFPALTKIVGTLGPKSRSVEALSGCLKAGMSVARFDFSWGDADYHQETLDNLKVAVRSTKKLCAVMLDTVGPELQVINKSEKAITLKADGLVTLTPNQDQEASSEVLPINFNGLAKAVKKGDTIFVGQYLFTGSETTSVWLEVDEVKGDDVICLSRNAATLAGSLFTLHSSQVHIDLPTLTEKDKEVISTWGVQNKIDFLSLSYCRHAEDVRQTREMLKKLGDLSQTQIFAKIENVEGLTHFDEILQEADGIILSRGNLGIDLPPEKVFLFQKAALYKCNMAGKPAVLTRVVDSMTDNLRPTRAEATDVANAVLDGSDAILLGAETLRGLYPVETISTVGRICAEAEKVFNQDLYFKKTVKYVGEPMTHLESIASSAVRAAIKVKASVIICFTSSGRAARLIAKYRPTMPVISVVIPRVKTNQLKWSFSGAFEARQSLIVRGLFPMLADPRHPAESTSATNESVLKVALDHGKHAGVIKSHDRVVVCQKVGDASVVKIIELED
# T5: cPK3 (Arabidopsis thaliana, UniProt Q9FFP6)
# T5 construct: gene MBK5.16; printed locus At5g56350 duplicates cPK2 (apparent misprint); primer begins MSNIDIE, unlike cPK2; full-length cDNA in pET16b, N-terminal His tag (6x/5x), E. coli BLR21, Ni-NTA
# T5 sequence (Q9FFP6 1-510): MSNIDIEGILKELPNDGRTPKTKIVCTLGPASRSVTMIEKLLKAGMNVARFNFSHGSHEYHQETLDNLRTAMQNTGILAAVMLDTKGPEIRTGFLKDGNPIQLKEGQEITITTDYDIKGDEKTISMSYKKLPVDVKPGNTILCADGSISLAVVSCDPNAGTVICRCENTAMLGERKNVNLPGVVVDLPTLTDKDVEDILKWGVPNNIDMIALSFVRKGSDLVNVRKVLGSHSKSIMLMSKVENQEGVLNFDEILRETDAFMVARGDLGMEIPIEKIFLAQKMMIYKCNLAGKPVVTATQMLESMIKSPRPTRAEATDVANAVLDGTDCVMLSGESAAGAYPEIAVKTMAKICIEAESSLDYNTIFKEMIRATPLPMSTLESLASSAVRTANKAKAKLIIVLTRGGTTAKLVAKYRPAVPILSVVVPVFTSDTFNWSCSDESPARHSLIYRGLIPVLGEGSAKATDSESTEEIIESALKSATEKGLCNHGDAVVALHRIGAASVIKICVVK
# T6: cytosolic pyruvate kinase 4 (cPK4, At2g36580) (Arabidopsis thaliana) (UniProt Q9SJQ0)
# T6 sequence: T2 sequence (Q9SJQ0 1-527)
# T7: cytosolic pyruvate kinase 2 (cPK2, At5g56350) (Arabidopsis thaliana) (UniProt Q9FM97)
# T7 sequence: T3 sequence (Q9FM97 1-498)
# B1: cytosolic pyruvate kinase 5 (cPK5, At3g52990) (enzyme)
# chain: T4 sequence (F4J867 1-527)
# B2: cPK5 (Arabidopsis thaliana) (protein)
# chain: T4 sequence (F4J867 1-527)
# notes: full-length cDNA in pET16b, N-terminal His tag (6x in Results, 5x in Methods), E. coli BLR21, Ni-NTA; primer begins MHSSHL
# B3: cytosolic pyruvate kinase 1 (cPK1, At5g08570) (enzyme)
# chain: T1 sequence (Q9FNN1 1-510)
# Assays:
# cPK1 [1] = molecular target: T1, cPK1; test: LDH-coupled assay, single effector concentration; type: biochemical; settings: 1000 µM; saturating ADP and PEP; 10 mM MgCl2, pH 7.5, 25 °C; activator
# cPK1 [2] = molecular target: T1, cPK1; test: LDH-coupled assay, single effector concentration; type: biochemical; settings: 200 µM; saturating ADP and PEP; 10 mM MgCl2, pH 7.5, 25 °C; inhibitor
# cPK1 [3] = molecular target: T1, cPK1; test: LDH-coupled assay, single effector concentration; type: biochemical; settings: 4000 µM; saturating ADP and PEP; 10 mM MgCl2, pH 7.5, 25 °C; allosteric inhibitor (stated)
# cPK4 = molecular target: T2, cPK4; test: LDH-coupled assay, single effector concentration; type: biochemical; settings: 4000 µM; saturating ADP and PEP; 10 mM MgCl2, pH 7.5, 25 °C; allosteric inhibitor (stated)
# cPK2 [4] = molecular target: T3, cPK2; test: LDH-coupled assay, single effector concentration; type: biochemical; settings: 4000 µM; saturating ADP and PEP; 10 mM MgCl2, pH 7.5, 25 °C; allosteric inhibitor (stated)
# cPK5 = molecular target: T4, cPK5; test: LDH-coupled assay, single effector concentration; type: biochemical; settings: 4000 µM; saturating ADP and PEP; 10 mM MgCl2, pH 7.5, 25 °C; allosteric inhibitor (stated)
# cPK3 [5] = molecular target: T5, cPK3; test: LDH-coupled assay, single effector concentration; type: biochemical; settings: 4000 µM; saturating ADP and PEP; 10 mM MgCl2, pH 7.5, 25 °C; allosteric inhibitor (stated)
# [6] = molecular target: T6, cytosolic pyruvate kinase 4 (cPK4, At2g36580) (Arabidopsis thaliana)
# [7] = molecular target: T7, cytosolic pyruvate kinase 2 (cPK2, At5g56350) (Arabidopsis thaliana)
# cPK1 [8] = molecular target: T1, cPK1; test: LDH-coupled assay, single effector concentration; type: biochemical; settings: 2000 µM; saturating ADP and PEP; 10 mM MgCl2, pH 7.5, 25 °C; inhibitor (also reaction product)
# cPK3 [9] = molecular target: T5, cPK3; test: LDH-coupled assay, single effector concentration; type: biochemical; settings: 2000 µM; saturating ADP and PEP; 10 mM MgCl2, pH 7.5, 25 °C; inhibitor (also reaction product)
# cPK2 [10] = molecular target: T3, cPK2; test: LDH-coupled assay, single effector concentration; type: biochemical; settings: 2000 µM; saturating ADP and PEP; 10 mM MgCl2, pH 7.5, 25 °C; inhibitor (also reaction product)
# purified protein [11] = substrate: Nc1ncnc2c1ncn2[C@@H]1O[C@H](COP(=O)(O)OP(=O)(O)O)[C@@H](O)[C@H]1O; test: purified protein; type: biochemical, Arabidopsis thaliana; settings: co-substrate PEP, 10 mM MgCl2, 50 mM KCl, 5% PEG 200, pH 7.5, 25 °C
# purified protein [12] = substrate: C=C(OP(=O)(O)O)C(=O)O; test: purified protein; type: biochemical, Arabidopsis thaliana; settings: co-substrate ADP, 10 mM MgCl2, 50 mM KCl, 5% PEG 200, pH 7.5, 25 °C
molecule,measurement,setting,value
O=P(O)(O)OC[C@H]1OC(O)(COP(=O)(O)O)[C@@H](O)[C@@H]1O (stereo partly shown) [F1.6BP],F1.6BP,cPK1 [1],122%
N[C@@H](CC(=O)O)C(=O)O [aspartate],Aspartate,cPK1 [2],69%
O=C(O)CC(O)(CC(=O)O)C(=O)O [citrate],Citrate,cPK1 [3],17%
same,Citrate,cPK4,3%
same,Citrate,cPK2 [4],26%
same,Citrate,cPK5,2%
same,Citrate,cPK3 [5],7%
cytosolic pyruvate kinase 3 (cPK3) (from UniProt Q9FFP6 1-510) (enzyme),"specific pyruvate kinase activity (LDH-coupled assay, substrate saturating conditions) of a mixture of equal ratios of cPK4 and cPK3, compared to the single enzymes",[6],20 % increase
same,"specific pyruvate kinase activity (LDH-coupled assay, substrate saturating conditions) of a mixture of equal ratios of cPK2 and cPK3, compared to the single enzymes",[7],20 % increase
Nc1ncnc2c1ncn2[C@@H]1O[C@H](COP(=O)(O)OP(=O)(O)OP(=O)(O)O)[C@@H](O)[C@H]1O [ATP],ATP,cPK1 [8],7%
same,ATP,cPK3 [9],27%
same,ATP,cPK2 [10],76%
B1,"specific pyruvate kinase activity (LDH-coupled assay, substrate saturating conditions) of a batch with equal ratios of cPK4 and cPK5, compared to cPK4 alone",[6],180 % increase
B2,Km,purified protein [11],340 µM
same,kcat,purified protein [11],6.68 s⁻¹
same,Km,purified protein [12],50 µM
same,kcat,purified protein [12],6.68 s⁻¹
B3,"specific pyruvate kinase activity (LDH-coupled assay, substrate saturating conditions) of a mixture of equal ratios of cPK1 and cPK4, normalised to cPK4 alone",[6],75 % increase
same,"specific pyruvate kinase activity (LDH-coupled assay, substrate saturating conditions) of a mixture of equal ratios of cPK1 and cPK2, compared to cPK2 alone",[7],70 % increase
